The record followed here is publication PMC3798605, “Independent Pathways Can Transduce the Life-Cycle Differentiation Signal in Trypanosoma brucei” (PLoS Pathogens, 2013).

The target of the test is T1, TbPTP1/TbPIP39 (Trypanosoma brucei, UniProt Q38AT7+Q38EW0).
T1 construct: gene Tb10.70.0070; His-TbPTP1 plus GST-TbPIP39 (recoded synthetic gene, pGEX4T1); biophysical preparations described in supplement
T1 sequence (Q38AT7 1-306): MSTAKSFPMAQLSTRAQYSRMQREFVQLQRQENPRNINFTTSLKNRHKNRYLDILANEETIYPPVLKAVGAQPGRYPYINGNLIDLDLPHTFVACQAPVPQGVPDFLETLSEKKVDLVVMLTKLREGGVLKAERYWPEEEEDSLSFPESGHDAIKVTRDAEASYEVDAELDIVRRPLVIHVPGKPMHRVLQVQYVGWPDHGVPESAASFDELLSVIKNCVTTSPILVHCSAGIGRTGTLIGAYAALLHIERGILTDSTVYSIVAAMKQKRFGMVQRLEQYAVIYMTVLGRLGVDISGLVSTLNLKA
T1 sequence (Q38EW0 1-343): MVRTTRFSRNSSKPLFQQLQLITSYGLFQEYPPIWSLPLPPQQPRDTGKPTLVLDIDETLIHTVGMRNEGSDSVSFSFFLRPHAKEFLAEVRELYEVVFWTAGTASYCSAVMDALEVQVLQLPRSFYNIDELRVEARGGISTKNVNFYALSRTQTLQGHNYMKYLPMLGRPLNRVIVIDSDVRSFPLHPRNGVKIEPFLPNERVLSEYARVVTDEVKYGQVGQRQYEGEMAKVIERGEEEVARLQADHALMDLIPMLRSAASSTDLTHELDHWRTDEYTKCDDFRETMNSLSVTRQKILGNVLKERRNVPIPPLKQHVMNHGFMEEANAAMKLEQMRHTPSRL
Nature of the test: SPR, ligand-dependent TbPTP1-TbPIP39 interaction. The test is classed as binding. Conditions: isocitrate-promoted complex formation, indirect evidence; TbPTP1 immobilised. On the technique in general: SPR reads the build-up and loss of mass on a sensor chip optically.

SMILES strings stand for the structures.

For `O=C(O)C[C@H](C(=O)O)[C@@H](O)C(=O)O` [isocitrate], the “SPR, ligand-dependent TbPTP1-TbPIP39 interaction” value is “isocitrate, which does not stimulate differentiation, also promoted the interaction between TbPTP1 and wild type”.
